Results reported in patent US10702589B2, “Compositions and methods of treating neurological disorder and stress-induced conditions” (Ann and Robert H. Lurie Children's Hospital of Chicago, priority 2016, dated 2020).

Test system: AkrRE1/2 luciferase reporters
Assay: AkrRE1/2 luciferase reporter assay with mevalonate pathway metabolites in primary CGE and MGE cells
Format: cell-based, mouse
Details: FOH 0.1-100 μM, GGOH 0.01-100 μM, FIG. 2G-J
Excerpt: For all luciferase experiments, enhancers were cloned into the pGL3 promoter vector (Promega) using the KpnI and NheI restriction sites on the 5′ and 3′ sites, respectively. The Calb1 enhancers (site 1, site 2, and site 3), AkrR enhancers (site 1 and site 2), NPY enhancers (site 1 and site 2), and SST enhancer (site 1) were identified by MACS2 peak analysis of ChIP-seq (DNA sequences obtained from the UCSC genome browser). Primers were designed to PCR amplify enhancer sequences from C57BL/6J mouse genomic DNA into expression plasmids.
MGE and CGE tissues were dissected from E13.5 Swiss Webster embryos, dissociated in L15 media by pipetting several times, and spun through a cell strainer for single cell preparations. Briefly, cells were seeded at a density of 2.5×10^5 cells per cm^2 (Flandin et al. 2011). One day prior to seeding cells, 24-well plates were coated with poly-L-lysine (30 μg/mL; Sigma) and laminin (5 μg/mL; Sigma), while 96-well plates were coated with poly-L-lysine (3 μg/mL; Sigma) and laminin (5 μg/mL; Sigma). Initially, cells were seeded in neurobasal medium (DMEM/F-12 supplemented with L-glutamate, B-27 (Gibco), N2 supplement (Gibco), bovine pituitary extract (35 μg/mL; Life Technologies), mito+ serum extender (BD Biosciences), penicillin (100 U/mL; Gibco), streptomycin (100 μg/mL; Gibco), and glutamax (0.8 mM; Gibco)). […]

Row | SMILES | effect on AkrRE1/2 luciferase reporters, normalized to buffer alone
1 | CC(C)=CCCC(C)=CCCC(C)=CCO [FOH, farnesol] | dose-dependent, enhancer- and region-specific effects
2 | CC(C)=CCC/C(C)=C/CC/C(C)=C/CC/C(C)=C/CO [GGOH, geranylgeraniol] | dose-dependent, enhancer- and region-specific effects
